# Values quoted from earlier work as cited in US6663901B1, “Pellets having a core coated with an antifungal and a polymer” (Janssen Pharmaceutical N.V., priority 1998, dated 2003).
smiles,measurement,value
"CCC(C)n1ncn(-c2ccc(N3CCN(c4ccc(OCC5COC(Cn6cncn6)(c6ccc(Cl)cc6Cl)O5)cc4)CC3)cc2)c1=O (racemic) [itraconazole, (±)-cis-4-[4-[4-[4-[[2-(2,4-dichlorophenyl)-2-(1H-1,2,4-triazol-1-methyl)-1,3-dioxolan-4-yl]methoxy]phenyl]-1-piperazinyl]phenyl]-2,4-dihydro-2-(1-methylpropyl)-3H-1,2,4-triazol-3-one]",solubility in water,only very sparingly soluble
